Experimental data: the NIST ThermoML archive (doi:10.1021/acs.jced.6b00916)
“And” between values parts separate entries of the source, which are not always exact repeats. Equal entries are not always repeated.

Details: Liquid, Closed cell (Static) method

FC(F)(F)/C=C/Cl [(E)-1-chloro-3,3,3-trifluoroprop-1-ene]
Details | vapor or sublimation pressure
234.15 K | 7.2 kPa
237.15 K | 8.5 kPa
240.15 K | 10 kPa
243.15 K | 11.7 kPa
246.15 K | 13.7 kPa
249.15 K | 16 kPa
252.15 K | 18.6 kPa
255.15 K | 21.6 kPa
258.15 K | 25 kPa
261.15 K | 28.8 kPa
264.15 K | 33.1 kPa
267.15 K | 38 kPa
270.15 K | 43.4 kPa
273.15 K | 49.4 kPa
276.15 K | 56.1 kPa
279.15 K | 63.6 kPa
282.15 K | 71.7 kPa
285.15 K | 80.7 kPa
288.15 K | 90.6 kPa
291.15 K | 101.7 kPa
293.15 K | 108.8 kPa
294.15 K | 113.6 kPa
295.15 K | 117.2 kPa
297.15 K | 126 kPa and 126.6 kPa and 126.4 kPa
299.15 K | 135.1 kPa
300.15 K | 140.5 kPa
301.15 K | 144.9 kPa
303.15 K | 155.3 kPa and 155.9 kPa
305.15 K | 166.3 kPa
306.15 K | 172.6 kPa
307.15 K | 177.8 kPa
309.15 K | 190.1 kPa and 190.6 kPa
311.15 K | 202.9 kPa
312.15 K | 210 kPa
313.15 K | 216.1 kPa
315.15 K | 230.1 kPa and 230.9 kPa
317.15 K | 245 kPa
318.15 K | 253.5 kPa
319.15 K | 260.7 kPa
321.15 K | 277.1 kPa and 277.7 kPa
323.15 K | 296.3 kPa and 294.3 kPa
324.15 K | 303.6 kPa
325.15 K | 312.2 kPa
327.15 K | 331 kPa and 331.3 kPa
329.15 K | 350.5 kPa
330.15 K | 361 kPa
331.15 K | 371 kPa
333.15 K | 392.5 kPa and 392.6 kPa
335.15 K | 413.9 kPa
336.15 K | 426.2 kPa
337.15 K | 437.2 kPa
339.15 K | 461.2 kPa and 461.9 kPa
341.15 K | 486.3 kPa
342.15 K | 499.8 kPa
343.15 K | 513.2 kPa
345.15 K | 540.4 kPa and 540 kPa
347.15 K | 568.5 kPa
348.15 K | 582.7 kPa
349.15 K | 597.9 kPa
351.15 K | 628.7 kPa and 628.1 kPa
353.15 K | 660.4 kPa
354.15 K | 675.8 kPa
357.15 K | 726.3 kPa
360.15 K | 779.6 kPa
363.15 K | 835.8 kPa
366.15 K | 894.8 kPa
369.15 K | 957.1 kPa
372.15 K | 1022.5 kPa
375.15 K | 1091.3 kPa
